Reference: PubChem BioAssay (NCI)
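Where inhibition never reached the appropriate level, the endpoint shown equals the highest concentration tested. Otherwise, values were interpolated linearly from a five-concentration, 48-hour dose response in 96-well plates. Abbreviation: GI50, concentration required for 50% inhibition of growth. At the TGI there is no net growth.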

Assays:
Assay in all cases: inhibition of tumour cell growth, NCI panel, 48 h
NCI-H226 lung = test system: NCI-H226 lung
ACHN renal = test system: ACHN renal
HCT-15 colon = test system: HCT-15 colon
HCC-2998 colon = test system: HCC-2998 colon
A498 renal = test system: A498 renal
K-562 leukemia = test system: K-562 leukemia
UACC-257 melanoma = test system: UACC-257 melanoma
OVCAR-5 ovarian = test system: OVCAR-5 ovarian
BT-549 breast = test system: BT-549 breast
DU-145 prostate = test system: DU-145 prostate

SMILES | TGI (NCI-H226 lung) | TGI (ACHN renal) | TGI (HCT-15 colon) | TGI (HCC-2998 colon) | TGI (A498 renal) | TGI (K-562 leukemia) | TGI (UACC-257 melanoma) | TGI (OVCAR-5 ovarian) | TGI (BT-549 breast) | TGI (DU-145 prostate) | GI50 (UACC-257 melanoma) | GI50 (DU-145 prostate) | GI50 (A498 renal)
c1cn[nH]c1 | > 10 µM | > 10 µM | > 10 µM | > 10 µM | > 10 µM | > 10 µM |  |  |  |  |  |  | 
Cc1ccc(Nc2ccc(Nc3ccc(C)cc3S(=O)(=O)O)c3c2C(=O)c2ccccc2C3=O)c(S(=O)(=O)O)c1 | > 100 µM | > 100 µM | > 100 µM | > 100 µM | > 100 µM | > 100 µM | > 100 µM |  |  |  |  |  | 
Cc1ccc(N(C(=O)CC(=O)N2N=C(c3ccccc3)C(N=Nc3ccc([N+](=O)[O-])cc3)C2=O)C(=O)c2ccc(Cl)cc2)cc1 (centres undefined) | > 94.8 µM | > 100 µM | > 48.6 µM | > 100 µM | 36.9 µM | > 71.3 µM | > 72.7 µM | > 45.3 µM |  |  |  |  | 
C/C(=C/c1c(C)[nH]c(=O)[nH]c1=O)C(=O)O | > 1370 µM |  | > 1380 µM | > 1380 µM | > 1380 µM | > 1380 µM | > 1380 µM | 1370 µM |  |  |  |  | 
COc1ccc(N2C(=O)C3c4[nH]c5ccccc5c4C4CCC(C(C)(C)C)CC4C3C2=O)cc1OC (centres undefined) | 38.8 µM | 46.6 µM | > 100 µM | > 100 µM | 41.4 µM | 84.5 µM | > 100 µM |  |  |  |  |  | 
Cc1nn(-c2ccccc2)c2c1N=C(C(=O)O)CC(c1ccccc1)=N2 |  | > 10 µM | > 10 µM | > 10 µM |  | > 10 µM | > 10 µM |  | > 10 µM | > 10 µM |  |  | 
O=c1cc2cc(O)[nH]c(=O)c2c(O)[nH]1 | > 100 µM |  | > 100 µM |  | > 100 µM | > 100 µM | > 100 µM | > 100 µM |  |  |  |  | 
O=C(NC(CO)CO)c1ccc2cc(C(=O)N3CC(CCl)c4ccc([N+](=O)[O-])cc43)[nH]c2c1 (centres undefined) | > 100 µM | > 100 µM | > 100 µM | > 100 µM |  | > 100 µM | > 100 µM | > 100 µM | > 100 µM | > 100 µM |  |  | 
CC(CC(C)(C)[N+](C)(C)C)[N+](C)(C)C (centres undefined) | > 100 µM | > 100 µM | > 100 µM | > 100 µM |  | > 100 µM | > 100 µM | > 100 µM | > 100 µM | > 100 µM |  |  | 
O=C(NNCc1ccccc1O)c1ccccc1O | > 100 µM | > 100 µM | > 100 µM | 45.1 µM | > 100 µM | > 100 µM | > 100 µM | 96.3 µM |  | 43.4 µM |  |  | 
CC(=O)N1C(OCc2ccccc2)CCN1c1ccccc1 (centres undefined) | > 10 µM | > 10 µM | > 10 µM |  |  | > 10 µM | > 10 µM | > 10 µM | > 10 µM | > 10 µM |  |  | 
CCCCNCC(O)c1cc(-c2ccc(C(F)(F)F)cc2)nc(-c2ccc(C(F)(F)F)cc2)c1 (centres undefined) |  |  |  |  | 2.86 µM |  | 3.57 µM |  |  | 3.65 µM | 1.83 µM | 2.02 µM | 1.38 µM
c1ccc2nn(C3CCCCO3)nc2c1 (centres undefined) | > 100 µM | > 100 µM | > 100 µM | > 100 µM |  | > 100 µM | > 100 µM | > 100 µM | > 100 µM | > 100 µM |  |  | 
c1csc(-c2nnc(C34CC5CC(CC(C5)C3)C4)o2)c1 | > 100 µM | > 100 µM | > 100 µM | > 100 µM | 43.9 µM | > 100 µM |  | > 100 µM |  | > 100 µM |  |  | 
S=C1CSc2c(cnc3ccccc23)N1 | > 100 µM | > 100 µM | > 100 µM |  |  | > 100 µM | > 100 µM | > 100 µM | > 100 µM | > 100 µM |  |  | 
C/C(=N\n1c(Cc2ccccc2)n[nH]c1=O)c1ccc([N+](=O)[O-])cc1 | > 100 µM |  | > 100 µM |  |  | > 100 µM | > 100 µM | > 100 µM | > 100 µM | > 100 µM |  |  | 
CCOC(=O)/C=C1/Nc2cc(F)c(F)cc2NC1=O | > 100 µM | > 100 µM | > 100 µM | > 100 µM |  | > 100 µM | > 100 µM | > 100 µM | > 100 µM | > 100 µM |  |  | 
C1=C[C@]2(CCC13OCCO3)COc1ccccc12 | 81.2 µM | > 100 µM | > 100 µM | > 100 µM | > 100 µM | > 100 µM | > 100 µM | > 100 µM |  | > 100 µM |  |  | 
CC(CN(C)C)C(=O)/C=C/c1ccc(Cl)c(Cl)c1 (centres undefined) | 5.57 µM | 3.92 µM |  | 3.48 µM | 3.69 µM | > 100 µM | 5.61 µM | 4.07 µM | 4.45 µM | > 100 µM |  |  | 
CCCC1C(C#N)(C#N)C(C#N)=C(N)C1(C)C(C)=O (centres undefined) | > 100 µM | > 100 µM | > 100 µM | > 100 µM | > 100 µM | > 100 µM | > 100 µM | > 100 µM |  | > 100 µM |  |  | 
COc1ccc(/C=C/C(C(=O)O)C(=O)O)cc1 | > 100 µM | > 100 µM | > 100 µM | > 100 µM |  | > 100 µM | > 100 µM | > 100 µM |  |  |  |  | 
O=C1C=C(NCCc2cc(Br)c(O)c(Br)c2)C(=O)c2[nH]cnc21 | > 100 µM | > 100 µM | > 100 µM | > 100 µM |  | > 100 µM | 44.4 µM | 67.2 µM |  | > 100 µM |  |  | 
Cc1nn(C(=O)c2ccc(Cl)cc2)c2c1C(c1ccco1)SC(N)=N2 (centres undefined) | > 10 µM | > 10 µM | > 10 µM | > 10 µM |  | > 10 µM | > 10 µM | > 10 µM | > 10 µM | > 10 µM |  |  | 
CC(C)(Oc1ccc(C(=O)c2ccc(Cl)cc2)cc1Cl)C(=O)N1CCN(c2ccccc2)CC1 |  |  | > 100 µM |  | > 100 µM | > 100 µM | > 100 µM | > 100 µM |  |  |  |  | 
Cc1oc2c(C)c3oc(=O)cc(C)c3cc2c1CN | 91.2 µM | > 100 µM | > 100 µM | 64.7 µM | > 100 µM | > 100 µM | > 100 µM | > 100 µM |  |  |  |  | 
